Assay results reported in US20160166688A9, “COMBINATION THERAPY OF AN AFUCOSYLATED CD20 ANTIBODY WITH BENDAMUSTINE” (Roche Glycart AG, priority 2009, published 2016).

Test system: human Z138 mantle cell lymphoma cell line
Assay: Tumor growth inhibition study in vivo, Z138 xenograft
Set-up: species or system SCID beige mice
Conditions: for TGI (%): tumor growth inhibition vs. control group on day 33 after tumor cell inoculation, antibodies 1 mg/kg once weekly; for Antitumor activity / tumor growth compared to control group (words): 3 mg/kg i.p., study days 19-22, end of study day 33
[1] = i.p., bendamustine 3 mg/kg days 19-22

| Molecule | TGI (%) [1] [%] | Antitumor activity / tumor growth compared to control group (words) | Antitumor activity / tumor growth compared to control group (words) (listed as bendamustine) | Parametric TCR based on sAUC (vs. vehicle group 1, study end day 33, i.p., antibodies 1 mg/kg once weekly (days 19, 26), bendamustine 3 mg/kg days 19-22) |
| --- | --- | --- | --- | --- |
| B-HH6-B-KV1 GE: Afucosylated glyco-engineered humanized B-Ly1 type II anti-CD20 IgG1 antibody; VH SEQ ID NO:7 (B-HH6), VL SEQ ID No. 20 (B-KV1) | 47 |  |  |  |
| Cn1c(CCCC(=O)O)nc2cc(N(CCCl)CCCl)ccc21 [Bendamustine, 4-[5-[Bis(2-chloroethyl)amino]-1-methylbenzimidazol-2-yl]buta-noic acid] | 0 | comparable tumor growth as the control group | did not show any antitumor activity | 0.9 |
